From patent EP0255028A2 (priority 1986, dated 1988)
Read-outs that look alike come from different tables or passages of the source.

Tests used:
[1] = test system: durch PAF induzierte Aggregation von Humanthrambozyten; experiment: Inhibition of PAF-induced platelet aggregation in vitro (Born and Cross method); format: cell-based; details: Homo sapiens
From the text: 1. In vitro Untersuchun^qen: Hemmung der Blutplättchen-Aqqreqation
Zur Bestimmung der PAF-antagonistischen Wirkung von Substanzen wurde die durch PAF induzierte Aggregation von Humanthrambozyten in vitro verwendet. Zur Gewinnung von thrombozytenreichem Plasma (TRP) erfolgt die Blutentnahme aus einer nicht gestauten Vene mit Hilfe einer Plastikspritze, in der sich 3,8 %ige Natriumcitratlösung befindet. Das Verhältnis zwischen Natriumcitratlösung und Blut beträgt 1:9. Nach vorsichtiger Durchmischung wird das Citratblut bei 150 x g (1200 U/min) 20 Minuten lang zentrifugiert. Die Messung der Thrombozytenaggregation erfolgt nach dem von Born und Cross ausgearbeiteten Verfahren (G. V. R. Born und M.J. Cross, J. Physiol. 168, 178 (1963)), wobei dem TRP unter ständigem Rühren PAF als Auslöser der Aggregation zugesetzt wird.
Die Prüfsubstanz wird jeweils 2 - 3 Minuten vor Auslösung der Aggregation in einem Volumen von 10 µl zugesetzt. Als Lösungsmittel dienen entweder Aqua.dest., Ethanol und/oder Dimethylsulgoxyd. Kontrollansätze erhalten entsprechende Volumina dieser Lösungsmittel. Nach Registrierung der Ausgangsabsorption (2-3 Minuten) wird die Aggregation mit PAF (5 x 10^-8M) induziert.
Zur Beurteilung von Substanzeffekten wird das Maximum der ersten Aggregationswelle verwendet. Die durch PAF induzierte maximale Absorptionsrate maximale Aggregation x 100 %) wird jeweils gleichzeitig in einem Parallelansatz (= Kontrollansatz in einem der Kanäle des 2 Kanal-Aggregometers) zu jedem Testansatz (zweiter Kanal) mitgeprüft und als 100 %-Wert verwendet.
Der unter dem Einfluß der Testsubstanz erreichte Aggregationswert wird als 100 % angegeben.
Jede Prüfsubstanz wird bei Konzentrationen von 10^-3 bis 10^-8M mit einem Stichprobenumfang von jeweils n= 4 hinsichtlich einer hemmenden Wirkung auf die durch PAF induzierte Thrombozytenaggregation untersucht. Danach wird eine Konzentrations-Wirkungskurve anhand von 3 Konzentrationen erstellt und die IK50 (Konzentration bei einer 50%igen Aggregationsheinmung) ermittelt. Die IK-Werte von Verbindungen der allgemeinen Formel I bewegen sich im allgemeinen um Werte, die kleiner als 9 µM sind.

[2] = target: Flunitrazopam-Bindungstest; experiment: Flunitrazepam binding test (FNB); details: read-out: IK50-Wert FNB
[3] = read-out: IK50 (Konzentration bei einer 50%igen Aggregationshemmung)

SMILES | IC50 ([1]; read-out: IK50-Wert PAF) [µM] | IC50 [2] [µM] | IC50 [1, 3] [µM]
Cc1cnc2n1-c1ccc(OCc3cccnc3)cc1C(c1ccccc1)=NC2 (atropisomer, axis not shown) [(m)] | 0.1 |  | 
CCOC(=O)CCCOc1ccc2c(c1)C(c1ccccc1Cl)=NCc1nnc(C)n1-2 [(a), 8-(3-Ethoxycarbonyl-propyloxy)-1-Methyl-6-(2-chlorphenyl)-4H-(1,2,4]triazolo(4,3-a][1,4]benzodiazepin] | 1.3 | 0.57 | 
Cc1nnc2n1-c1ccc(OCC(=O)NCC(C)C)cc1C(c1ccccc1Cl)=NC2 [(b)] | 0.4 | 0.04 | 
Cc1nnc2n1-c1ccc(OCC(=O)NC3CCN(C)CC3)cc1C(c1ccccc1Cl)=NC2 [(c)] | 0.8 | 2.16 | 
Cc1nnc2n1-c1ccc(OCCN3CCOCC3)cc1C(c1ccccc1Cl)=NC2 [(d)] | 0.3 | 2.68 | 
Cc1nnc2n1-c1ccc(OCCN3C(=O)c4ccccc4C3=O)cc1C(c1ccccc1Cl)=NC2 [(e)] | 0.3 |  | 
Cc1nnc2n1-c1ccc(C3=NC(C)(C)CO3)cc1C(c1ccccc1Cl)=NC2 [(f)] | 0.4 | 0.8 | 
Cc1nnc2n1-c1ccc(C(=O)NCCN3CCOCC3)cc1C(c1ccccc1Cl)=NC2 [(g)] | 0.9 | > 5 | 
Cc1nnc2n1-c1ccc(C(=O)OCCCN(C)C)cc1C(c1ccccc1Cl)=NC2 [(h)] | 1.2 |  | 
Cc1nnc2n1-c1ccc(OCCN3CCOCC3)cc1C(c1ccccc1Cl)NC2 (centres unmarked) [(i)] | 0.4 | 4.55 | 
Cc1nnc2n1-c1ccc(OCCCN3CCOCC3)cc1C(c1ccccc1)=NC2 [(j)] | 0.1 | > 5 | 
Cc1nnc2n1-c1ccc(OCc3cccnc3)cc1C(c1ccccc1)=NC2 [(k)] | 0.2 | 1.42 | 
Cc1cnc2n1-c1ccc(OCCCN3CCOCC3)cc1C(c1ccccc1)=NC2 [(l)] | 0.1 | > 5 | 
Cc1nnc2n1-c1ccc(Cl)cc1C(c1ccccc1)=NC2 [Alprazolam, reference compound] | 14 | 0.0055 | 14
Cc1nnc2n1-c1ccc(Cl)cc1C(c1ccccc1Cl)=NC2 [Triazolam, reference compound] | 9 | 0.0014 | 9
